In patent publication US8569349B2, “Therapeutic compounds” (Allergan, Inc., priority 2008, dated 2013):

System: lashes and adjacent hairs of the eyelids
Assay: Observation of lashes and adjacent hairs in glaucoma patients taking bimatoprost in only one eye
Assay type: in vivo
Text: In the course of treating patients having glaucoma, treatment may only be appropriate in one eye. […] The lash appearance on the lids of the treated eyes would have appeared quite attractive if it represented a bilateral phenomenon. As a result of its asymmetric nature, the long lashes on one side could be construed as disturbing from a cosmetic standpoint. A systemic examination was preformed as a result of the asymmetric phenomenon. It soon became apparent that this altered appearance was not an isolated finding. […] Definite differences could be identified to varying degrees in the lashes and adjacent hairs of all patients who were taking the drug on a unilateral basis for longer than 6 months.
The changes in the lashes were apparent on gross inspection in several patients once attention was focused on the issue. In those with light colored hair and lashes, the differences were only seen easily with the aid of the high magnification and lighting capabilities of the slit lamp biomicroscope. In the course of glaucoma follow-up examination, attention is generally immediately focused on the eye itself. As a result of the high power magnification needed only one eye is seen at a time and the eye is seen at a high enough power that the lashes are not in focus. […]

CCNC(=O)CCC/C=C\C[C@@H]1[C@@H](/C=C/[C@@H](O)CCc2ccccc2)[C@H](O)C[C@@H]1O [bimatoprost]
lashes in the treated eye compared with the non-treated eye (glaucoma patient treated in one eye): longer, thicker, and fuller | hair growth in treated versus control areas (multiple parameters of hair appearance, many subjects): stimulated
